Test results from patent publication US20150272939A1, “Identification of Small Molecule Inhibitors of Jumonji AT-Rich Interactive Domain 1A (JARID1A) and 1B (JARID1B) Histone Demethylase” (Yale University, priority 2012, published 2015).
Values joined by “and” are separate entries in the source; they are usually repeats but may differ in a detail not shown here. Identical values can stand only once. Like-named read-outs stand apart in the source and are kept apart here.

Columns and labels:
[1] = AlphaScreen counterscreen against bio-H3K4me2 peptide in the absence of enzyme (artifact signal); conditions: for Artifact Signal (percent): effect of the compound when incubated with bio-H3K4me2 peptide (counterscreen, no enzyme); for Artifact signal: effect of the compound when it is incubated with bio-H3K4me2 peptide: counterscreen, no enzyme;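 as to all read-outs here: counterscreen run without enzyme against bio-H3K4me2 peptide to remove false positive hits from the JARID1 demethylase AlphaScreen screen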
JARID1B = biological target: T1, JARID1B (Homo sapiens, UniProt Q9UGL1); assay: FLAG-JARID1B histone demethylase assay with AlphaScreen detection (HTS and dose response); format: biochemical; conditions: for Assay − Artifact Signal (percent): assay signal minus artifact signal; for inhibition at 20 µM: read-out: Inhibitory effect (percent); for Assay Signal (percent) / Validation result of HTS active: effect of the compound in the JARID1B AlphaScreen demethylase assay: validation of HTS actives; for Assay Signal (percent): effect of compound in JARID1B AlphaScreen assay; for Validation result of HTS active: effect of the compound in the JARID1B AlphaScreen demethylase assay: total signal before subtraction of artifact signal;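 as to Assay Signal (percent): compound tested at 20 µM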;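 as to Assay − Artifact Signal (percent): compound tested at 20 µM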;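 as to all read-outs here: FLAG-tagged JARID1B at 4 nM acting on a biotinylated H3K4me3 peptide, demethylation read by AlphaScreen luminescence, with hits checked against bio-H3K4me2 without enzyme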
T1 construct: The FLAG tagged full length JARID1B enzyme was expressed in Sf21 insect cells using FLAG-JARID1B baculoviruses; FLAG (N); made in house; host or cells: Sf21 insect cells (baculovirus)
T1 sequence (Q9UGL1 whole entry): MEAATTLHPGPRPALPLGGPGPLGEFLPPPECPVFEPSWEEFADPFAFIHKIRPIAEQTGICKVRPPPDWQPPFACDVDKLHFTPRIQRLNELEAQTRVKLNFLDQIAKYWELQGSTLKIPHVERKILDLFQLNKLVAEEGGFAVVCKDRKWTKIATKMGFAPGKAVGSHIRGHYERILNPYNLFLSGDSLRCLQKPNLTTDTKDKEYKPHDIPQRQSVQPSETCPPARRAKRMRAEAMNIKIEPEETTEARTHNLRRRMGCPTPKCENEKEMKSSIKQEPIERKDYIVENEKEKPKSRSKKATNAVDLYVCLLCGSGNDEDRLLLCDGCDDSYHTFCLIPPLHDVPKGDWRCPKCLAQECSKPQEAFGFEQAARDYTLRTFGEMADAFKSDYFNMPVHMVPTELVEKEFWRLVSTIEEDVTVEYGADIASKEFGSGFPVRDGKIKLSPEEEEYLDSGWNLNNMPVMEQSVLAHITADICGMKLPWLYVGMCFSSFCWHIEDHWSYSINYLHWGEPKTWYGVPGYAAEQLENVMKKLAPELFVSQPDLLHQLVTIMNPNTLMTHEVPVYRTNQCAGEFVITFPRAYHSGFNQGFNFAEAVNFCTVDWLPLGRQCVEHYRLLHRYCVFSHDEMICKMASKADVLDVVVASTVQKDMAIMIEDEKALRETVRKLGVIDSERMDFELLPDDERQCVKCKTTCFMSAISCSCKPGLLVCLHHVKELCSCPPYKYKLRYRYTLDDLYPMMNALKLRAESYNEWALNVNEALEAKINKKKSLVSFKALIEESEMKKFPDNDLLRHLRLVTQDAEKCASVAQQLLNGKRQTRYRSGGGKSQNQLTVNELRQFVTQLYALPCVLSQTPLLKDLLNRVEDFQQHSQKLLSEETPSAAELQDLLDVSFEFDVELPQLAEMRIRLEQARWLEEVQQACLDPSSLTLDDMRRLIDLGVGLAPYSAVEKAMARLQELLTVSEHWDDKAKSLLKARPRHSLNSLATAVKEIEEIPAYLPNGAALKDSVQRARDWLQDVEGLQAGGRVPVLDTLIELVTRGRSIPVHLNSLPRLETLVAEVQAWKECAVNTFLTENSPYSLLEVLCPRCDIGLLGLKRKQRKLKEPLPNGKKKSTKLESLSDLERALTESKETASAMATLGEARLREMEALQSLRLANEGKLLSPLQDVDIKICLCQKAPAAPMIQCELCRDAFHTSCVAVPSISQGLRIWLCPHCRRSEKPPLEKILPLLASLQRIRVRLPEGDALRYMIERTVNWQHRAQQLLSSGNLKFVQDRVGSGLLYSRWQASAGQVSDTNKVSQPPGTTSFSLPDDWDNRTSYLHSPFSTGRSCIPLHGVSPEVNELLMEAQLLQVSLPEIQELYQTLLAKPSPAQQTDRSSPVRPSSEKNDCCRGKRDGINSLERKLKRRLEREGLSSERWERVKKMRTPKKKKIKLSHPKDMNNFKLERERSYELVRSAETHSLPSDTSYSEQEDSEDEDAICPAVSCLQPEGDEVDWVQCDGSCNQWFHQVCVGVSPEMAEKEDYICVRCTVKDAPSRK

[2] = high-throughput screen, compound 20 μM, standard demethylase conditions (10 μM α-KG, 50 μM Fe (II))

Structure (SMILES)	Artifact Signal (percent) [1]	Assay − Artifact Signal (percent) (JARID1B) [%]	inhibition at 20 µM (JARID1B; [2]) [%]	Assay Signal (percent) (JARID1B)	Artifact signal: effect of the compound when it is incubated with bio-H3K4me2 peptide [1]	Validation result of HTS active: effect of the compound in the JARID1B AlphaScreen demethylase assay (JARID1B)	Inhibitory effect (percent) (JARID1B; [2]) [%]	inhibition at 20 µM (JARID1B; high-throughput screen, compound 20 μM, IDs marked *: additional hits under reaction condition with 1 mM α-KG) [%]
C=CCN(CC=C)C(=S)Nc1sc(C)c(C)c1C(=O)OC [YU153003]	6.76%	16.80	65.6	23.56%	–	–	–	–
CCCSc1nc2c3c(sc2c(=O)[nH]1)CC(C)(CC)OC3 (centres unmarked) [YU153031]	0.09%	9.19	97	9.27%	–	–	–	–
O=C(NCc1ccccc1)c1ccc(N2CCCC2)c([N+](=O)[O-])c1 [YU153074]	5.15%	11.37	102	16.52%	–	–	–	–
O=C(O[C@@H]1Cc2c(O)cc(O)cc2O[C@@H]1c1ccc(O)c(O)c1)c1cc(O)c(O)c(O)c1 [YU153085, EPICATECHIN MONOGALLATE, reference compound]	85.87%	8.72	–	94.59%	–	–	–	–
O=C(O[C@@H]1Cc2c(O)cc(O)cc2O[C@@H]1c1cc(O)c(O)c(O)c1)c1cc(O)c(O)c(O)c1 [YU153090, EPIGALLOCATECHIN-3- MONOGALLATE, reference compound]	–	–	–	–	90.25	95.83	–	–
C#CCOc1c(Cl)cc(C(=S)N2CCOCC2)cc1OC [YU153110]	−3.09%	37.96	45.2	34.87%	–	–	–	–
Cc1cc(C(=O)Nc2c(C)n(C)n(-c3ccccc3)c2=O)c(C)o1 [YU153128]	4.15%	8.37	101	12.52%	–	–	–	–
O=C(NC1=NC(=O)C(F)(C(F)(F)F)S1)NC1CCCCC1 (centres unmarked) [YU153281]	1.95%	23.51	55.3	25.46%	–	–	–	–
CCOc1c(CNc2ccc(N3CCCC3)cc2)cccc1OC [YU153287]	17.14%	11.21	54.2	28.35%	–	–	–	–
O=c1c(O)c(-c2ccc(O)c(O)c2)oc2c(O[C@@H]3O[C@H](CO)[C@@H](O)[C@H](O)[C@H]3O)c(O)cc(O)c12 [YU153353, GOSSYPIN, reference compound]	61.80%	37.81	–	99.61%	–	–	–	–
O=c1c2cc(O)c(O)cc2oc2cc(O)c([C@@H]3O[C@H](CO)[C@@H](O)[C@H](O)[C@H]3O)c(O)c12 [YU153356, MANGIFERIN, reference compound]	76.59%	21.62	–	98.21%	–	–	–	–
Fc1cccc(-c2nn3c(-c4ccccc4Cl)nnc3s2)c1 [YU153729]	−3.54%	14.96	33.9	11.41%	–	–	–	–
Cn1c(=O)n(C)c2cc(S(=O)(=O)NNc3ccccc3)ccc21 [YU153899]	–	–	–	–	0.54	8.44	–	–
CN(C)CCn1c2c(c3ccccc31)CCCn1cnnc1-2.Cl [YU153907]	–	–	41.2	–	−2.05	1.57	–	–
c1ccc(-c2nn3c(Cn4cnc5ccccc54)nnc3s2)cc1 [YU153935]	−6.99%	21.66	40.5	14.67%	–	–	–	–
c1cncc(-c2nn3c(Cn4cnc5ccccc54)nnc3s2)c1 [YU154091]	5.50%	24.37	40	29.87%	–	–	–	–
O=C(NC1CCCCC1)c1ccc(NC(=O)c2ccccc2O)cc1 [YU154737]	4.58%	23.65	45	28.23%	–	–	–	–
O=C(O)c1cc(N(Cc2ccccc2O)Cc2cc(O)ccc2O)ccc1O [YU154829, LAVENDUSTIN A, reference compound]	8.32%	30.24	50.3	38.57%	–	–	–	–
N#CC(C#N)=Cc1cc(O)c(O)c(O)c1 [YU154832, TYRPHOSTIN 25, reference compound]	5.21%	17.87	53.7	23.08%	–	–	–	–
Oc1cc(O)cc(/C=C/c2ccc(O)c(O)c2)c1 [YU154843, PICEATANNOL, reference compound]	−4.85%	18.12	34	13.28%	–	–	–	–
CN(C)CCCn1cc(C2=C(c3c[nH]c4ccccc34)C(=O)NC2=O)c2ccccc21 [YU154851, GF 109203X, reference compound]	–	–	40.7	–	5.46	5.76	–	–
Cn1cc(C2=C(c3cn(CCCSC(=N)N)c4ccccc34)C(=O)NC2=O)c2ccccc21 [YU154853, Ro 31-8220, reference compound]	–	–	44	–	38.79	41.07	–	–
O=C(O)c1cc(NCc2cc(O)ccc2O)ccc1O [YU154859, 2-HYDROXY-5-(2,5- DIHYDROXYBENZYL- AMINO)BENZOIC ACID, reference compound]	3.65%	42.61	46.4	46.26%	–	–	–	–
O=c1c(O)c(-c2ccc(O)c(O)c2)oc2cc(O)cc(O)c12 [YU154882, QUERCETIN, reference compound]	78.83% and 68.48%	–	86	100.88% and 78.65%	–	–	93.51	–
COCc1cc(O)c(O)c(O)c1-c1c(COC)cc(O)c(O)c1O [YU154887, 2,2,3,3,4,4- HEXAHYDROXY-1,1- BIPHENYL-6,6- DIMETHANOL DIMETHYL ETHER, reference compound]	42.41%	57.15	103	99.57%	–	–	–	–
Oc1ccc2c(c1)OCC1(O)Cc3cc(O)c(O)cc3C21 (centres unmarked) [YU154998, BRAZILIN, reference compound]	−0.48%	15.98	70.3	15.51%	–	–	–	–
O=c1c(O)cc([C@H]2Oc3cc(O)cc(O)c3C[C@H]2O)cc2c([C@H]3Oc4cc(O)cc(O)c4C[C@H]3O)cc(O)c(O)c12 [YU155003, THEAFLAVIN, reference compound]	47.32%	13.49	60.4	60.81%	–	–	–	–
Oc1cc2c(cc1O)C1c3ccc(O)c(O)c3OCC1(O)C2 (centres unmarked) [YU155005, HAEMATOXYLIN, reference compound]	34.32%	64.59	101	98.90%	–	–	–	–
COc1ccc(-c2coc3cc(O)ccc3c2=O)c(O)c1O [YU155016, KOPARIN, reference compound]	14.33%	13.76	–	28.09%	–	–	–	42.3
O=C1C=C2C[C@@]3(O)COc4cc(O)ccc4C3=C2C=C1O [YU155025, BRAZILEIN, reference compound]	−0.14%	9.26	78.8	9.12%	–	–	–	–
